Read-outs that look alike come from different tables or passages of the source.
Columns and labels:
OATP1B3 = OATP1B3 (Homo sapiens, UniProt Q9NPD5); assay: In vitro transporter inhibition, OATP1B3
BCRP = molecular target: T1, BCRP (Homo sapiens, UniProt Q9UNQ0); assay: In vitro transporter inhibition, BCRP
T1 sequence (Q9UNQ0 1-655): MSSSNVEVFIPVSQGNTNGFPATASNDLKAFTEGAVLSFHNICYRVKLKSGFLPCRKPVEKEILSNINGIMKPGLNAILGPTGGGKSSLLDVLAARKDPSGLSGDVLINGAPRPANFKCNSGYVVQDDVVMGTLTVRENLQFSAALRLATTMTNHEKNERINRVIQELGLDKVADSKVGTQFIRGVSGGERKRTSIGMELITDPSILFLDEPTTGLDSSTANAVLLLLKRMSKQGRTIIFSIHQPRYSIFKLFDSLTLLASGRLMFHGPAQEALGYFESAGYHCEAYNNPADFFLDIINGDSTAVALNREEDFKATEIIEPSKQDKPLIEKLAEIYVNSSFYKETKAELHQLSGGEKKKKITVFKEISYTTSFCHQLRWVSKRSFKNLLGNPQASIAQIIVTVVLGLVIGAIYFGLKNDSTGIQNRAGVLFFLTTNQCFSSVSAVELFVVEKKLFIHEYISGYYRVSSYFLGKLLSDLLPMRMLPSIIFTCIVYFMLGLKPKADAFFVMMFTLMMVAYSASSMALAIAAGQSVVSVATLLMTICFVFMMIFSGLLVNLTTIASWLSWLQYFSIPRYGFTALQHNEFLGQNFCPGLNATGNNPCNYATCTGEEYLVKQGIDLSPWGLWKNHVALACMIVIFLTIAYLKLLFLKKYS

[1] = 28-day GLP toxicology study in rats
OATP1B1 = OATP1B1 (Homo sapiens, UniProt Q9Y6L6); assay: In vitro transporter inhibition, OATP1B1
Chain of OATP1B1 (Q9Y6L6 whole entry): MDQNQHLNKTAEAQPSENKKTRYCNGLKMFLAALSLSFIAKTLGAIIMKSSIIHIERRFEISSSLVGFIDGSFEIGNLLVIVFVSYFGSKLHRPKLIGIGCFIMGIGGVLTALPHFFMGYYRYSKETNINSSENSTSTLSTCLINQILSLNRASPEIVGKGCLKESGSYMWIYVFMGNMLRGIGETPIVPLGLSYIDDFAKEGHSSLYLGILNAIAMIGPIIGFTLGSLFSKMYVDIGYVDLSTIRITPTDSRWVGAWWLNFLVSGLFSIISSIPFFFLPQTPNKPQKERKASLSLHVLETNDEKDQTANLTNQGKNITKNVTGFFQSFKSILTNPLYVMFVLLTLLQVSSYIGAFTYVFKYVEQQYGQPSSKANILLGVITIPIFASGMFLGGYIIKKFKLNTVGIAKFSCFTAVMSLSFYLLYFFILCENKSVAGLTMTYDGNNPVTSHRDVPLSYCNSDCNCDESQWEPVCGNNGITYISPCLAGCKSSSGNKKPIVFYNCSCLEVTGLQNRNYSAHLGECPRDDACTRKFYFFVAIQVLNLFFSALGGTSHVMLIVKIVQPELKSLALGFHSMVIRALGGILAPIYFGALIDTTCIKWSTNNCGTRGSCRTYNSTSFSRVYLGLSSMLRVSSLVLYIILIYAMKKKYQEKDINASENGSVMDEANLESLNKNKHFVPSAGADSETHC

in vivo = details: dog, po
[2] = Preclinical pharmacokinetics, oral once daily (Table 1); details: total drug concentrations
[3] = Phase I dose escalation safety in mCRPC patients
Description: (§1) A traditional 3+3 dose escalation design was implemented. […] Dose increases were dependent upon toxicities.

[4] = tested on: enzalutamide resistant VCaP xenograft; assay: Enzalutamide-resistant VCaP xenograft model; type: in vivo
[5] = Phase I clinical trial pharmacokinetics; details: male, human, in vivo, po, once daily
Description: as §1

[6] = Exploratory non-GLP assay of rosuvastatin in retained patient plasma samples; type: in vivo, human; details: 2 patients taking rosuvastatin concurrently with Compound (I-g)
Description: An exploratory, non-GLP method was developed to analyze for rosuvastatin and its major metabolite N-desmethyl rosuvastatin in retained pharmacokinetic plasma samples from the 2 patients.

[7] = 3 and 10 μM, preliminary study, solubility limitation
[8] = 280 mg QD patient with rosuvastatin 20 mg QD, level before decrease
[9] = same patient, within 14 days after Compound (I-g) and rosuvastatin were discontinued

Chain of OATP1B3 (Q9NPD5 whole entry): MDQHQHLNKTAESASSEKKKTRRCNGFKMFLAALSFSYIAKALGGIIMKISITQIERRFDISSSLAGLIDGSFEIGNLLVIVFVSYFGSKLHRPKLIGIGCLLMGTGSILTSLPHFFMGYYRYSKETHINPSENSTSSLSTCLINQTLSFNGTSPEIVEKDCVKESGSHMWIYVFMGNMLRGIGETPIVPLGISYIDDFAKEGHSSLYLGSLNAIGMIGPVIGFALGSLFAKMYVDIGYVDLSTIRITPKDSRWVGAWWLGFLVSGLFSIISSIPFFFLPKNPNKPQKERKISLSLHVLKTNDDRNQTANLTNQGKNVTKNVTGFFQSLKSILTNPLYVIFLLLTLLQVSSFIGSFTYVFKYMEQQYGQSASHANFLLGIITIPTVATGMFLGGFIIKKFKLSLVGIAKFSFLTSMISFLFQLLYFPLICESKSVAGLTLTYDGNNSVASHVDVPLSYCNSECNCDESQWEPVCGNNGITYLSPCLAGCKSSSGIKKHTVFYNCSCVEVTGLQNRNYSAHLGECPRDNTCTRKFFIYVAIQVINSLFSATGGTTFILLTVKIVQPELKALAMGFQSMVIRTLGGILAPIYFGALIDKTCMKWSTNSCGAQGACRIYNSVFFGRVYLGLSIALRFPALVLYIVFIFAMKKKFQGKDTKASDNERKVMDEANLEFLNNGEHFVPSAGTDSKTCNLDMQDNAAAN

N#Cc1ccc(O[C@H]2CC[C@H](NC(=O)c3ccc(N4CCC(CN5CCN(c6cc7c(cc6F)C(=O)N(C6CCC(=O)NC6=O)C7=O)CC5)CC4)nn3)CC2)cc1Cl (stereo partly shown) [Compound (I-g)]
IC50 (OATP1B3): > 10 µM
inhibition of OATP1B3 (OATP1B3; [7]): no inhibition
histopathology correlated with AST/ALT elevations (dogs): No correlated histopathology changes were observed
gastrointestinal alterations (dogs, 3, 10 or 30 mg/kg oral once daily): observed at all dose levels (including vehicle alone)
AST and ALT (dogs, 10 or 30 mg/kg/day, study days 14 and 29): reversible elevations of AST and ALT
renal impairment (dogs, 28-day GLP study): No evidence of renal impairment was observed
prostate weights (male dogs): decreased prostate weights
IC50 (BCRP): > 10 µM
inhibition of BCRP (BCRP; [7]): no inhibition
body weight and food consumption ([1]; 80 mg/kg female rat cohort): lost body weight and consumed less food
reversibility of findings in male high-dose rats ([1]; male high-dose rats, 14-day recovery): fully reversible (liver hypertrophy, femur physis thickening)
prostate weights ([1]; male rats): decreased prostate weights
renal impairment ([1]; rats, 28-day GLP study): No evidence of renal impairment was observed
tolerability ([1]; rats, oral once daily, 28 days, males 20, 60, 120 mg/kg, females 20, 40, 120 mg/kg): well tolerated at all doses, with the exception of the 80 mg/kg female cohort
IC50 (OATP1B1): > 10 µM
inhibition of OATP1B1 (OATP1B1; [7]): no inhibition
MTD at 28 days (in vivo): < 30 mg/kg
Mean AUC0-24 ([2]; 1 mg/kg oral): 3628 ng·h/mL
Mean Cmax ([2]; 1 mg/kg oral): 224 ng/mL
Mean AUC0-24 ([2]; 3 mg/kg oral): 8106 ng·h/mL
Mean Cmax ([2]; 3 mg/kg oral): 507 ng/mL
adverse events ([3]; 35 mg/day cohort): no adverse events at grades 2, 3 or 4 were observed
dose limiting toxicity ([3]; 35 mg/day cohort): no dose limiting toxicity was observed
AST/ALT elevation on second re-challenge ([3]; 70 mg QD following discontinuation of rosuvastatin): no other AST/ALT elevation has been observed for 90 days
AST/ALT elevation on re-challenge ([3]; 70 mg QD while continuing rosuvastatin): second instance of Grade 3 AST/ALT elevation
adverse events ([3]; 70 mg/day cohort): no adverse events at grades 2, 3 or 4 have been observed, with the exception of grade 3 anemia that was unrelated to the administration of compound (I-g)
dose limiting toxicity ([3]; 70 mg/day cohort): no dose limiting toxicity has been observed
adverse events ([3]; 140 mg/day cohort): no adverse events at grades 2, 3 or 4 have been observed
dose limiting toxicity ([3]; 140 mg/day cohort): no dose limiting toxicity has been observed
dose limiting toxicity ([3]; 280 mg QD cohort (3 patients), patient taking rosuvastatin 20 mg QD): one patient experienced dose limiting toxicity (DLT) of Grade 4 AST/ALT elevation followed by Grade 4 acute renal failure
ALT level [3, 8]: 4116 U/L
AST level [3, 8]: 4901 U/L
overall tolerability ([3]; 18 patients, 35 mg to 280 mg QD): well tolerated
time to resolution of Grade 3 AST/ALT elevation to Grade 1 ([3]; after dose interruption, 140 mg QD patient with rosuvastatin 40 mg QD): ≤ 5 days
ALT level [3, 9]: 83 U/L
AST level [3, 9]: 280 U/L
tumor growth inhibition ([4]; 3 mg/kg oral once daily, compared to a control group): 70%
AR in enzalutamide-resistant VCaP tumors (Western blot) ([4]; 10 mg/kg and 3 mg/kg oral, once daily, FIG. 6): reduction of AR
lowest efficacious dose ([4]; oral, once daily, enzalutamide-resistant VCaP model): 3 mg/kg
AUC(0-t) ([5]; 35 mg, Mean Day 1 AUC0-24, 35 mg oral): 160 ng·h/mL
Cmax ([5]; 35 mg, Mean Day 1 Cmax, 35 mg oral): 11.1 ng/mL
AUC(0-t) ([5]; 35 mg, Mean Day 15 AUC0-24, 35 mg oral, imputed 24 hours values): 1700 ng·h/mL
Cmax ([5]; 35 mg, Mean Day 15 Cmax, 35 mg oral): 83 ng/mL
AUC(0-t) ([5]; 70 mg, Mean Day 1 AUC0-24, 70 mg oral): 300 ng·h/mL
Cmax ([5]; 70 mg, Mean Day 1 Cmax, 70 mg oral): 19.6 ng/mL
AUC(0-t) ([5]; 70 mg, Mean Day 15 AUC0-24, 70 mg oral, imputed 24 hours values): 2540 ng·h/mL
Cmax ([5]; 70 mg, Mean Day 15 Cmax, 70 mg oral): 141 ng/mL
AUC(0-t) ([5]; 140 mg, Mean Day 1 AUC0-24, 140 mg oral): 865 ng·h/mL
Cmax ([5]; 140 mg, Mean Day 1 Cmax, 140 mg oral): 54 ng/mL
AUC(0-t) ([5]; 140 mg, Mean Day 15 AUC0-24, 140 mg oral, imputed 24 hours values): 5020 ng·h/mL
Cmax ([5]; 140 mg, Mean Day 15 Cmax, 140 mg oral): 353 ng/mL

CC(C)c1nc(N(C)S(C)(=O)=O)nc(-c2ccc(F)cc2)c1/C=C/[C@@H](O)C[C@@H](O)CC(=O)O [Rosuvastatin, rosuvastatin]
rosuvastatin plasma concentrations [6]: increased concurrently with the increase in AST/ALT levels in both patients

From patent publication US20210353621A1 (priority 2020, published 2021)
